Experimental findings from patent publication US8440660B2 (Santen Pharmaceutical Co., Ltd., priority 2006, dated 2013) are described below.

Molecules are shown by their SMILES.

The target in this assay is T1, Glucocorticoid Receptor (GR) (Homo sapiens, UniProt P04150).
T1 construct: purchased Invitrogen P2816
T1 sequence (P04150 1-777): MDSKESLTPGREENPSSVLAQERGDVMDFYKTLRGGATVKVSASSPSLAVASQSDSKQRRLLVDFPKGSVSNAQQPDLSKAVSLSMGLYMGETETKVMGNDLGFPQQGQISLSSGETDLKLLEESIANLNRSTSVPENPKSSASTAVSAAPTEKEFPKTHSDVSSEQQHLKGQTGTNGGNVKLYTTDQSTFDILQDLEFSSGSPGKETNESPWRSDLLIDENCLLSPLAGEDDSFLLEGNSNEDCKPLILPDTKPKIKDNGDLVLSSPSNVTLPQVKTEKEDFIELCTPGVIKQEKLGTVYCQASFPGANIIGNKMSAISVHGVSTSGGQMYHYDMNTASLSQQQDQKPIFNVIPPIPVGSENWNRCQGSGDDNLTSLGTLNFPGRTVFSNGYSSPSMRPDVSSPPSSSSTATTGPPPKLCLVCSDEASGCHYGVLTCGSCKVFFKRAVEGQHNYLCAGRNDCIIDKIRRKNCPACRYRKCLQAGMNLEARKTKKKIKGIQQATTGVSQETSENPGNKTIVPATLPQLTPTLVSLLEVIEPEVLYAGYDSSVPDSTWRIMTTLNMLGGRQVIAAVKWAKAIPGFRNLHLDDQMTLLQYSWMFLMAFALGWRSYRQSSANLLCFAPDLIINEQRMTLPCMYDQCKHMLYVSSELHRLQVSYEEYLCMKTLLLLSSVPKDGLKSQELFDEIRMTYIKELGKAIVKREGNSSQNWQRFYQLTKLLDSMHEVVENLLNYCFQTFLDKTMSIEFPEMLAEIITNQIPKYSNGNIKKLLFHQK
The assay is described as follows: GR receptor competitor assay by fluorescence polarization (Invitrogen GR competitor assay kit, cat No. P2816). Conditions: 20 μM test compound solution, 10 μL per well plus 5 μL 4×GS1 and 5 μL 4×GR solution; recombinant human GR; 2 to 4 hours at room temperature; a ratio of 100% or more is indicated by 100%; read-out: GR Binding ratio (%). A digest of the protocol: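 Recombinant human GR with fluorescent ligand Fluormone GS1 in pH 7.4 phosphate buffer with molybdate, EDTA, DTT, stabilizing peptide and 2% DMSO; compound added as 20 μM solution (pre-mix). FP read after 2–4 h at room temperature in the dark. Binding ratio (%) normalized between buffer and dexamethasone controls.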
(Polarisation of emitted light reports the rotation of a fluorescent probe.)

`COc1cc(OS(=O)(=O)C(C)C)ccc1-c1ccc2c(c1COc1cc(F)ccc1C)C(C)=CC(C)(C)N2` [Compound 4-13, 5-(5-Fluoro-2-methylphenoxymethyl)-6-(4-isopropylsulfonyloxy-2-methoxyphenyl)-2,2,4-trimethyl-1,2-dihydroquinoline]: the inhibition at 10 µM came to 89%.
For `CCCCS(=O)(=O)Oc1ccc(-c2ccc3c(c2COc2cc(F)ccc2C)C(C)=CC(C)(C)N3)c(OC)c1` [Compound 4-14, 6-(4-Butylsulfonyloxy-2-methoxyphenyl)-5-(5-fluoro-2-methylphenoxymethyl)-2,2,4-trimethyl-1,2-dihydroquinoline], the inhibition at 10 µM turned out to be 90%.
The same measure for `CCCS(=O)(=O)Oc1ccc(-c2ccc3c(c2COc2cc([N+](=O)[O-])ccc2OC)C(C)=CC(C)(C)N3)c(OC)c1` [Compound 4-18, 5-(2-Methoxy-5-nitrophenoxymethyl)-6-(2-methoxy-4-propylsulfonyloxyphenyl)-2,2,4-trimethyl-1,2-dihydroquinoline]: 99%.
Consider `COc1ccc([N+](=O)[O-])cc1OCc1c(-c2ccc(OS(=O)(=O)C3CC3)cc2OC)ccc2c1C(C)=CC(C)(C)N2` [Compound 4-19, 6-(4-Cyclopropylsulfonyloxy-2-methoxyphenyl)-5-(2-methoxy-5-nitrophenoxymethyl)-2,2,4-trimethyl-1,2-dihydroquinoline], for which the inhibition at 10 µM was 98%.
With `COc1ccc([N+](=O)[O-])cc1OCc1c(-c2ccc(OS(=O)(=O)C(C)C)cc2OC)ccc2c1C(C)=CC(C)(C)N2` [Compound 4-20, 6-(4-Isopropylsulfonyloxy-2-methoxyphenyl)-5-(2-methoxy-5-nitrophenoxymethyl)-2,2,4-trimethyl-1,2-dihydroquinoline], the inhibition at 10 µM is 100%.
The same measure for `CCS(=O)(=O)Oc1ccc(-c2ccc3c(c2COc2cc([N+](=O)[O-])ccc2C)C(C)=CC(C)(C)N3)c(OC)c1` [Compound 4-23, 6-(4-Ethylsulfonyloxy-2-methoxyphenyl)-5-(2-methyl-5-nitrophenoxymethyl)-2,2,4-trimethyl-1,2-dihydroquinoline]: 100%; for `CCCS(=O)(=O)Oc1ccc(-c2ccc3c(c2COc2cc([N+](=O)[O-])ccc2C)C(C)=CC(C)(C)N3)c(OC)c1` [Compound 4-25, 6-(2-Methoxy-4-propylsulfonyloxyphenyl)-5-(2-methyl-5-nitrophenoxymethyl)-2,2,4-trimethyl-1,2-dihydroquinoline]: 100%; for `COc1cc(OS(=O)(=O)C(C)C)ccc1-c1ccc2c(c1COc1cc([N+](=O)[O-])ccc1C)C(C)=CC(C)(C)N2` [Compound 4-26, 6-(4-Isopropylsulfonyloxy-2-methoxyphenyl)-5-(2-methyl-5-nitrophenoxymethyl)-2,2,4-trimethyl-1,2-dihydroquinoline]: 100%.
On to `COc1cc(OS(=O)(=O)C2CC2)ccc1-c1ccc2c(c1COc1cc(F)ccc1C)C(C)=CC(C)(C)N2` [Compound 4-27, 6-(4-Cyclopropylsulfonyloxy-2-methoxyphenyl)-5-(5-fluoro-2-methylphenoxymethyl)-2,2,4-trimethyl-1,2-dihydroquinoline], for which the inhibition at 10 µM stood at 100%.
Then `COc1cc(OS(=O)(=O)CC(C)C)ccc1-c1ccc2c(c1COc1cc(F)ccc1C)C(C)=CC(C)(C)N2` [Compound 4-28, 5-(5-Fluoro-2-methylphenoxymethyl)-6-(4-isobutylsulfonyloxy-2-methoxyphenyl)-2,2,4-trimethyl-1,2-dihydroquinoline], with 100%; and `COc1cc(OS(=O)(=O)C2CCCC2)ccc1-c1ccc2c(c1COc1cc(F)ccc1C)C(C)=CC(C)(C)N2` [Compound 4-29, 6-(4-Cyclopentylsulfonyloxy-2-methoxyphenyl)-5-(5-fluoro-2-methylphenoxymethyl)-2,2,4-trimethyl-1,2-dihydroquinoline], with 100%; and `COc1cc(OS(=O)(=O)CCC(F)(F)F)ccc1-c1ccc2c(c1COc1cc(F)ccc1C)C(C)=CC(C)(C)N2` [Compound 4-30, 5-(5-Fluoro-2-methylphenoxymethyl)-6-[2-methoxy-4-(3,3,3-trifluoroproprylsulfonyloxy)phenyl]-2,2,4-trimethyl-1,2-dihydroquinoline], with 100%.
The same measure for `COc1ccccc1OC(=O)Oc1ccc(-c2ccc3c(c2COc2cc(F)ccc2C)C(C)=CC(C)(C)N3)c(OC)c1` [Compound 5-5, 5-(5-Fluoro-2-methylphenoxymethyl)-6-[2-methoxy-4-(2-methoxyphenoxycarbonyloxy)phenyl]-2,2,4-trimethyl-1,2-dihydroquinoline]: 93%; for `COc1cc(OC(=O)Nc2ccccc2Cl)ccc1-c1ccc2c(c1COc1cc(F)ccc1C)C(C)=CC(C)(C)N2` [Compound 6-3, 6-[4-(2-Chlorophenylaminocarbonyloxy)-2-methoxyphenyl]-5-(5-fluoro-2-methylphenoxymethyl)-2,2,4-trimethyl-1,2-dihydroquinoline]: 98%.
Then `COc1cccc(NC(=O)Oc2ccc(-c3ccc4c(c3COc3cc(F)ccc3C)C(C)=CC(C)(C)N4)c(OC)c2)c1` [Compound 6-12, 5-(5-Fluoro-2-methylphenoxymethyl)-6-[2-methoxy-4-(3-methoxyphenylaminocarbonyloxy)phenyl]-2,2,4-trimethyl-1,2-dihydroquinoline], with 98%; and `COc1ccc(NC(=O)Oc2ccc(-c3ccc4c(c3COc3cc(F)ccc3C)C(C)=CC(C)(C)N4)c(OC)c2)cc1` [Compound 6-13, 5-(5-Fluoro-2-methylphenoxymethyl)-6-[2-methoxy-4-(4-methoxyphenylaminocarbonyloxy)phenyl]-2,2,4-trimethyl-1,2-dihydroquinoline], with 100%; and `COC(=O)c1ccc(NC(=O)Oc2ccc(-c3ccc4c(c3COc3cc(F)ccc3C)C(C)=CC(C)(C)N4)c(OC)c2)cc1` [Compound 6-14, 5-(5-Fluoro-2-methylphenoxymethyl)-6-[2-methoxy-4-(4-methoxycarbonylphenylaminocarbonyloxy)phenyl]-2,2,4-trimethyl-1,2-dihydroquinoline], with 88%.
Turning to `COc1cc(OC(=O)Nc2ccc(C#N)cc2)ccc1-c1ccc2c(c1COc1cc(F)ccc1C)C(C)=CC(C)(C)N2` [Compound 6-17, 6-[4-(4-Cyanophenylaminocarbonyloxy)-2-methoxyphenyl]-5-(5-fluoro-2-methylphenoxymethyl)-2,2,4-trimethyl-1,2-dihydroquinoline], the inhibition at 10 µM came to 90%.
For the compound `COc1cc(OC(=O)N2CCOCC2)ccc1-c1ccc2c(c1COc1cc(F)ccc1C)C(C)=CC(C)(C)N2` [Compound 6-18, 5-(5-Fluoro-2-methylphenoxymethyl)-6-[2-methoxy-4-(morpholin-4-ylcarbonyloxy)phenyl]-2,2,4-trimethyl-1,2-dihydroquinoline], the inhibition at 10 µM stood at 100%.
`COc1cc(OC(=O)NC(C)C)ccc1-c1ccc2c(c1COc1cc(F)ccc1C)C(C)=CC(C)(C)N2` [Compound 6-21, 6-(4-Isopropylaminocarbonyloxy-2-methoxyphenyl)-5-(5-fluoro-2-methylphenoxymethyl)-2,2,4-trimethyl-1,2-dihydroquinoline]: the inhibition at 10 µM was determined as 92%.
Then `COc1ccc([N+](=O)[O-])cc1OCc1c(-c2ccc(OC(=O)N3CCOCC3)cc2OC)ccc2c1C(C)=CC(C)(C)N2` [Compound 6-28, 6-[2-Methoxy-4-(morpholin-4-ylcarbonyloxy)phenyl]-5-(2-methoxy-5-nitrophenoxymethyl)-2,2,4-trimethyl-1,2-dihydroquinoline], with 100%; and `COc1cc(OC(=O)N2CCOCC2)ccc1-c1ccc2c(c1COc1cc([N+](=O)[O-])ccc1C)C(C)=CC(C)(C)N2` [Compound 6-30, 6-[2-Methoxy-4-(morpholin-4-ylcarbonyloxy)phenyl]-5-(2-methyl-5-nitrophenoxymethyl)-2,2,4-trimethyl-1,2-dihydroquinoline], with 100%.
